According to the supplement of paper PMC13207355:

Key:
Conditions in all cases: exposure time: 72 h
[1] = system: E13 (patient-derived glioblastoma stem cells of classical subtype); test: surviving fraction (nuclei count normalised to DMSO); higher = more cells surviving (less toxic)
[2] = system: E21 (patient-derived glioblastoma stem cells of mesenchymal subtype); test: as above
[3] = system: E28 (patient-derived glioblastoma stem cells of classical subtype); test: as above
[4] = system: E31 (patient-derived glioblastoma stem cells of proneural subtype); test: as above
[5] = system: E34 (patient-derived glioblastoma stem cells of proneural subtype); test: as above
[6] = system: E57 (patient-derived glioblastoma stem cells of mesenchymal subtype); test: as above
[7] = system: FT3469 (normal neural stem cell line); test: as above
[8] = system: E13; test: phenotypic distance (Euclidean, principal components) from DMSO controls (arbitrary units); higher = stronger morphological change
[9] = system: E21; test: as above
[10] = system: E28; test: as above
[11] = system: E31; test: as above
[12] = system: E34; test: as above
[13] = system: E57; test: as above
[14] = system: FT3469; test: as above
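Throughout, for phenotypic distance (Euclidean, principal components) from DMSO controls: cell Painting imaging in 384-well plates, CellProfiler features reduced to at least 20 principal components, Euclidean distance versus same-plate DMSO vehicle wells (0.1% v/v), median over six images per well.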
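Throughout, for surviving fraction (nuclei count normalised to DMSO): nuclei counted by high-content imaging of Hoechst-stained cells in laminin-coated 384-well plates, relative to 0.1% DMSO vehicle wells, with staurosporine as cell-death control.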

## C/C=C1\NC(=O)[C@H]2CSSCC/C=C/[C@H](CC(=O)N[C@H](C(C)C)C(=O)N2)OC(=O)[C@H](C(C)C)NC1=O [Romidepsin]
[1]; 4.1 nM
  surviving fraction: 0.219
[1]; 12.3 nM
  surviving fraction: 0.212
[1]; 37 nM
  surviving fraction: 0.191
[1]; 111.1 nM
  surviving fraction: 0.211
[1]; 333.3 nM
  surviving fraction: 0.169
[1]; 1000 nM
  surviving fraction: 0.0814
[1]; 3000 nM
  surviving fraction: 0.00947
[2]; 4.1 nM
  surviving fraction: 0.102
[2]; 12.3 nM
  surviving fraction: 0.0766
[2]; 37 nM
  surviving fraction: 0.0713
[2]; 111.1 nM
  surviving fraction: 0.0809
[2]; 333.3 nM
  surviving fraction: 0.049
[2]; 1000 nM
  surviving fraction: 0.00532
[2]; 3000 nM
  surviving fraction: 0
[3]; 4.1 nM
  surviving fraction: 0.157
[3]; 12.3 nM
  surviving fraction: 0.153
[3]; 37 nM
  surviving fraction: 0.138
[3]; 111.1 nM
  surviving fraction: 0.194
[3]; 333.3 nM
  surviving fraction: 0.17
[3]; 1000 nM
  surviving fraction: 0.17
[3]; 3000 nM
  surviving fraction: 0.0691
[4]; 4.1 nM
  surviving fraction: 0.00149
[4]; 12.3 nM
  surviving fraction: 0.0134
[4]; 37 nM
  surviving fraction: 0.00446
[4]; 111.1 nM
  surviving fraction: 0.00892
[4]; 333.3 nM
  surviving fraction: 0.00594
[4]; 1000 nM
  surviving fraction: 0.00446
[4]; 3000 nM
  surviving fraction: 0.00892
[5]; 4.1 nM
  surviving fraction: 0.302
[5]; 12.3 nM
  surviving fraction: 0.292
[5]; 37 nM
  surviving fraction: 0.271
[5]; 111.1 nM
  surviving fraction: 0.359
[5]; 333.3 nM
  surviving fraction: 0.286
[5]; 1000 nM
  surviving fraction: 0.245
[5]; 3000 nM
  surviving fraction: 0.1
[6]; 4.1 nM
  surviving fraction: 0.062
[6]; 12.3 nM
  surviving fraction: 0.0535
[6]; 37 nM
  surviving fraction: 0.0389
[6]; 111.1 nM
  surviving fraction: 0.0558
[6]; 333.3 nM
  surviving fraction: 0.0428
[6]; 1000 nM
  surviving fraction: 0.0349
[6]; 3000 nM
  surviving fraction: 0.00732
[7]; 4.1 nM
  surviving fraction: 0.237
[7]; 12.3 nM
  surviving fraction: 0.267
[7]; 37 nM
  surviving fraction: 0.31
[7]; 111.1 nM
  surviving fraction: 0.274
[7]; 333.3 nM
  surviving fraction: 0.321
[7]; 1000 nM
  surviving fraction: 0.123
[7]; 3000 nM
  surviving fraction: 0.0672
[8]; 4.1 nM
  phenotypic distance: 4.99
[8]; 12.3 nM
  phenotypic distance: 4.79
[8]; 37 nM
  phenotypic distance: 4.79
[8]; 111.1 nM
  phenotypic distance: 5.03
[8]; 333.3 nM
  phenotypic distance: 4.51
[8]; 1000 nM
  phenotypic distance: 6.31
[8]; 3000 nM
  phenotypic distance: 8.31
[9]; 4.1 nM
  phenotypic distance: 6.02
[9]; 12.3 nM
  phenotypic distance: 7.55
[9]; 37 nM
  phenotypic distance: 7.46
[9]; 111.1 nM
  phenotypic distance: 6.75
[9]; 333.3 nM
  phenotypic distance: 7.68
[9]; 1000 nM
  phenotypic distance: 9.06
[9]; 3000 nM
  phenotypic distance: 20.2
[10]; 4.1 nM
  phenotypic distance: 4.95
[10]; 12.3 nM
  phenotypic distance: 5.55
[10]; 37 nM
  phenotypic distance: 5.4
[10]; 111.1 nM
  phenotypic distance: 4.65
[10]; 333.3 nM
  phenotypic distance: 5.39
[10]; 1000 nM
  phenotypic distance: 5.54
[10]; 3000 nM
  phenotypic distance: 6.46
[11]; 4.1 nM
  phenotypic distance: 12.3
[11]; 12.3 nM
  phenotypic distance: 10.3
[11]; 37 nM
  phenotypic distance: 11
[11]; 111.1 nM
  phenotypic distance: 8.91
[11]; 333.3 nM
  phenotypic distance: 7.47
[11]; 1000 nM
  phenotypic distance: 18.1
[11]; 3000 nM
  phenotypic distance: 7.62
[12]; 4.1 nM
  phenotypic distance: 8.64
[12]; 12.3 nM
  phenotypic distance: 7.96
[12]; 37 nM
  phenotypic distance: 9.03
[12]; 111.1 nM
  phenotypic distance: 8.78
[12]; 333.3 nM
  phenotypic distance: 7.71
[12]; 1000 nM
  phenotypic distance: 8.57
[12]; 3000 nM
  phenotypic distance: 7.26
[13]; 4.1 nM
  phenotypic distance: 8.58
[13]; 12.3 nM
  phenotypic distance: 7.79
[13]; 37 nM
  phenotypic distance: 9.5
[13]; 111.1 nM
  phenotypic distance: 9.16
[13]; 333.3 nM
  phenotypic distance: 8.37
[13]; 1000 nM
  phenotypic distance: 9.9
[13]; 3000 nM
  phenotypic distance: 11.1
[14]; 4.1 nM
  phenotypic distance: 3.71
[14]; 12.3 nM
  phenotypic distance: 2.82
[14]; 37 nM
  phenotypic distance: 3.47
[14]; 111.1 nM
  phenotypic distance: 2.86
[14]; 333.3 nM
  phenotypic distance: 3.77
[14]; 1000 nM
  phenotypic distance: 5.6
[14]; 3000 nM
  phenotypic distance: 8.06

## Cc1cc(CN)cc(C)c1NC(=O)c1ccc(-c2cc(Cl)ccc2Cl)o1
[1]; 3000 nM
  surviving fraction: 0.865
[2]; 3000 nM
  surviving fraction: 0.862
[3]; 3000 nM
  surviving fraction: 0.919
[4]; 3000 nM
  surviving fraction: 0.856
[5]; 3000 nM
  surviving fraction: 0.829
[6]; 3000 nM
  surviving fraction: 0.964
[7]; 3000 nM
  surviving fraction: 0.883
[8]; 3000 nM
  phenotypic distance: 1.34
[9]; 3000 nM
  phenotypic distance: 0.968
[10]; 3000 nM
  phenotypic distance: 0.815
[11]; 3000 nM
  phenotypic distance: 1.86
[12]; 3000 nM
  phenotypic distance: 0.825
[13]; 3000 nM
  phenotypic distance: 1.29
[14]; 3000 nM
  phenotypic distance: 0.784
